Results published in US8685928B2, “Antagonists of MUC1” (Dana-Farber Cancer Institute, Inc., priority 2010, dated 2014).
Positions of bridges follow the written chain, without caps; N, C: chain ends. Non-standard residues stand in square brackets, D forms with d. Residues, ends and D or L forms follow the SMILES beside them.

Columns and labels:
H1975 Lung cancer cells = assay: Inhibition of cell proliferation, trypan blue exclusion (Table 2); assay type: cell-based, human; settings: 5 μM peptide every day, 6-day treatment
Method: Cells (ZR-75-1 breast carcinoma or H-1975 non-small cell lung carcinoma) were plated separately in 24-well plates for 24 hours prior to treatment with different peptides. The cells were then treated with 5 μM (final concentration) of different peptides every day for 4-6 days. On the day of termination, cells were washed two times with PBS and trypsinized with 0.3 ml of Trypsin/EDTA. Cell growth media was used to stop the trypsin reaction. Following washing, the cells were centrifuged and the cell pellets were re-suspended in PBS for counting in hemacytometer.
The trypan blue dye exclusion method was used to determine the number of viable cells present in a cell suspension. Cell suspension was mixed as 1:1 with the trypan blue dye and then visually examined in a hemacytometer. A viable cell will have a clear cytoplasm whereas a non-viable/dead cell will be stained with trypan blue dye. By doing this trypan blue exclusion method, viable cell numbers were counted and percent inhibition of proliferation was then calculated comparing with untreated controls.

dopamine D1 receptor = dopamine D1 receptor (Homo sapiens, UniProt P21728); assay: biochemical
Sequence of dopamine D1 receptor (P21728 whole entry, species assumed): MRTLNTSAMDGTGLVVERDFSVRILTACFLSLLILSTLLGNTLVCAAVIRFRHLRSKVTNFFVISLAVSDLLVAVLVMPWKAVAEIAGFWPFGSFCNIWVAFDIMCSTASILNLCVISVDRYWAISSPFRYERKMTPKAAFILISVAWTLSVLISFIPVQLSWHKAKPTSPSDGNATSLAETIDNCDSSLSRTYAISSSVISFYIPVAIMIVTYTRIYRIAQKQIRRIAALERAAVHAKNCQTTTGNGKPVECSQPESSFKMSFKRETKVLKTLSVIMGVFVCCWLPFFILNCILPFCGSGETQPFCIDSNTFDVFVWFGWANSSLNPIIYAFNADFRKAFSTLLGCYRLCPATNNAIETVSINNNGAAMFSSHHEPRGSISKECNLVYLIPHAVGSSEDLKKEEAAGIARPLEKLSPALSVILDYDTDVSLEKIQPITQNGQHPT

## CC(=O)N[C@H](CCCNC(=N)N)C(=O)N[C@H](CCCNC(=N)N)C(=O)N[C@H](CCCNC(=N)N)C(=O)N[C@H](CCCNC(=N)N)C(=O)N[C@H](CCCNC(=N)N)C(=O)N[C@H](CCCNC(=N)N)C(=O)N[C@H](CCCNC(=N)N)C(=O)N[C@H](CCCNC(=N)N)C(=O)N[C@H](CCCNC(=N)N)C(=O)N[C@@H]1CSSC[C@H](C(=O)N[C@H](CCCNC(=N)N)C(=O)N[C@H](CCCNC(=N)N)C(=O)N[C@H](CCCCN)C(=O)N[C@H](CC(N)=O)C(N)=O)NC(=O)[C@@H](CCC(N)=O)NC1=O [GO-203-2c, Ac-(D)Arg-(D)Arg-(D)Arg-(D)Arg-(D)Arg-(D)Arg-(D)Arg-(D)Arg-(D)Arg-(D)Cys-(D)Gln-(D)Cys-(D)Arg-(D)Arg-(D)Lys-(D)Asn-NH2 disulfide] (Ac-[dR][dR][dR][dR][dR][dR][dR][dR][dR][dC][dQ][dC][dR][dR][dK][dN]-NH2; disulfide 10-12)
H1975 Lung cancer cells
  Avg (viable cell number of Groups 1-3): 7.2
H1975 Lung cancer cells; vs untreated control
  % inhibition: 60.7%
H1975 Lung cancer cells; well having 10,000 cells
  Group-1 (viable cell number, individual well): 8.47
  Group-2 (viable cell number, individual well): 7.13
  Group-3 (viable cell number, individual well): 6.02
Dopamine D1 receptor
  IC50: 10.5 µM
